We go through one molecule from patent CN113813388A, “一种眼用纳米胶束及其制备方法和应用” (Zhejiang University ZJU, priority 2021, dated 2021).

The nature of data set [1]: H2O2 (ROS) scavenging assay with hydrogen peroxide detection kit (S0038, Beyotime). Format: biochemical. Particulars: within 15 min; Tempo concentration 100 μg/mL-1; 500 μM H2O2 in 0.01 M PBS pH 7.4.
For data set [2] the following is noted: after topical ocular administration; cited from earlier work.

The structures appear in SMILES notation.

In the case of `CC1(C)CCCC(C)(C)N1[O]` [Tempo], in data set [1], the “eliminated H2O2” value came out at 78.9%. For the same molecule, in data set [2], the “rapidly cleared, time after application” value is 15 to 30 s.
